Target: T1, recombinant PfA-M1 (Plasmodium falciparum, UniProt O96935)
T1 sequence (O96935 1-1085): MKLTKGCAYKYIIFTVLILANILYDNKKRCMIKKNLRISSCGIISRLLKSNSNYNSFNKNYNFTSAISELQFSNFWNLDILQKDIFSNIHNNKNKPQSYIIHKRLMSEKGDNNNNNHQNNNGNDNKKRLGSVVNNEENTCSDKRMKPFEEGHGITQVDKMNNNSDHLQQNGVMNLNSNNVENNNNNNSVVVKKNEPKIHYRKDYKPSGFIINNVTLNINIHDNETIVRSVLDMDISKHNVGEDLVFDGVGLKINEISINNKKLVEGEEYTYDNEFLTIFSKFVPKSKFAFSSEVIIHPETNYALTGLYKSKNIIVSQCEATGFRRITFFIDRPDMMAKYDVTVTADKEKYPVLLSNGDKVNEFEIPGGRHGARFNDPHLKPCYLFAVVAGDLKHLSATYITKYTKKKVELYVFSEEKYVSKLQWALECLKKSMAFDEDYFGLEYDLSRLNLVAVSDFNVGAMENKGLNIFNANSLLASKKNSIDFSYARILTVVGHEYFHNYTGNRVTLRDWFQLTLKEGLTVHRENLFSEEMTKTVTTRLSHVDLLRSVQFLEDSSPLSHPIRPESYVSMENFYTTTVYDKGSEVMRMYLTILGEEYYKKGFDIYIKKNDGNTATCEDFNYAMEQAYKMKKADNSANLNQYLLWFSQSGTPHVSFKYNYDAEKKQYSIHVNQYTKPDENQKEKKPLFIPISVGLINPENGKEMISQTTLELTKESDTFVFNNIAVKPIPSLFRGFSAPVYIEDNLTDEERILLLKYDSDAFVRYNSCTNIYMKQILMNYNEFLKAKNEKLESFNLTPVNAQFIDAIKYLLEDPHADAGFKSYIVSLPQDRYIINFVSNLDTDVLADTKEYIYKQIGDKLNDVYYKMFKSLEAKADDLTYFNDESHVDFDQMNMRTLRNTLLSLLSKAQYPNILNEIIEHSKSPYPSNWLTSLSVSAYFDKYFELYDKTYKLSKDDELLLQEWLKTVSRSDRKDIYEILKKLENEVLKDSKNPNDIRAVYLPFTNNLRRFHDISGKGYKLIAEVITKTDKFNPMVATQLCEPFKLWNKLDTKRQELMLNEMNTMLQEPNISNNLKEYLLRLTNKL
Type: biochemical
Settings: read-out: Ki (nM) PfA-M1; P1' derivatives; assays at 8 inhibitor concentrations spanning 0.3 30 μM

Row | Compound | Ki [nM]
1 | N[C@H](Cc1ccccc1)[C@H](O)C(=O)N[C@@H](Cc1ccc2ccccc2c1)C(=O)O [compound 5, PheNaphOH] | > 30000
2 | N[C@H](Cc1ccccc1)[C@H](O)C(=O)N[C@@H](Cc1ccc(-c2ccccc2)cc1)C(=O)O [compound 6, PheBipOH] | > 30000

Source: paper PMC3516848 (Journal of medicinal chemistry, 2011)
